According to patent US9580444B2, “Polycyclic pyrazolinone derivative and herbicide comprising same as effective component thereof” (priority 2013, dated 2017):

Legend:
Format in all cases: in vivo
[1] = system: Amaranthus viridis (green amaranthus); assay: Test Example-2: herbicidal effect by a soil treatment before weeds are generated under upland field conditions; settings: application amount 500 g a.i/ha, soil spray treatment before weeds are generated, about 21 days after the treatment, score 0 to 5
How it was run: (§1)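 Pre-emergence soil treatment: seeds sown in upland soil and covered with about 0.5 cm soil were sprayed the next day with diluted wettable powder or emulsifiable concentrate at a predetermined dosage. Weed control and corn injury were scored on a 0–5 scale about 21 days after treatment.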

[2] = system: Chenopodium album (common lambsquarters); assay: as above; settings: application amount 500 g a.i/ha, soil spray treatment before weeds are generated, about 21 days after the treatment, score 0 to 5
How it was run: as §1

[3] = system: corn; assay: Test Example-3: phytotoxicity by a treatment before weeds are generated under upland field conditions; settings: upland soil treatment before emergence, about 21 days after treatment, score 0-5
Excerpt: (§2) Using the formulation prepared according to the methods described above, the herbicidal effect of the bicyclic pyrazolinone derivative of the invention according to the methods shown in Test Examples below was examined. The herbicidal effect with respect to the test weeds or the phytotoxicity with respect to the test crops was examined according to the following criteria, and evaluated in six stage scores of 0 to 5. A vat having an area of 81 cm^2 and a depth of 3.5 cm was filled with upland soil, then, seeds of Ipomoea purpurea (tall morning glory), Amaranthus viridis (green amaranthus), Abutilon theophrasti (velvetleaf), Chenopodium album (common lambsquarters), and corn were seeded thereto, and the seeds were covered with soil of about 0.5 cm. Next day, a wettable powder or an emulsifiable concentrate of the compound of the present invention prepared according to Formulation Example was diluted, and a spray treatment was uniformly performed on the covered oil so as to be a predetermined dosage. The herbicidal effect with respect to the test weeds and the phytotoxicity with respect to corn about 21 days after the treatment were evaluated according to the evaluation criteria in six stages of 0 to 5 described above.

[4] = system: Ipomoea purpurea (tall morning glory); assay: Test Example-5: herbicidal effect by a foliage treatment after weeds are generated under upland field conditions; settings: foliage treatment after emergence, about 14 days after treatment, score 0-5
Excerpt: as §2, with “While watering was suitably performed on there, the seeds were grown for 14 days. A” for “Next day, a”, “foliage portion of the plant” for “covered oil”, “dosage in the amount of water of 4000 L per hectare.” for “dosage.”, “14” for “21”

[5] = system: Amaranthus viridis (green amaranthus); assay: as above; settings: foliage treatment after emergence, about 14 days after treatment, score 0-5
Excerpt: as §2, with “While watering was suitably performed on there, the seeds were grown for 14 days. A” for “Next day, a”, “foliage portion of the plant” for “covered oil”, “dosage in the amount of water of 4000 L per hectare.” for “dosage.”, “14” for “21”

[6] = system: Abutilon theophrasti (velvetleaf); assay: as above; settings: foliage treatment after emergence, about 14 days after treatment, score 0-5
Excerpt: as §2, with “While watering was suitably performed on there, the seeds were grown for 14 days. A” for “Next day, a”, “foliage portion of the plant” for “covered oil”, “dosage in the amount of water of 4000 L per hectare.” for “dosage.”, “14” for “21”

[7] = system: Chenopodium album (common lambsquarters); assay: as above; settings: foliage treatment after emergence, about 14 days after treatment, score 0-5
Excerpt: as §2, with “While watering was suitably performed on there, the seeds were grown for 14 days. A” for “Next day, a”, “foliage portion of the plant” for “covered oil”, “dosage in the amount of water of 4000 L per hectare.” for “dosage.”, “14” for “21”

[8] = system: Ipomoea purpurea (tall morning glory); assay: Test Example-3: herbicidal effect by a treatment before weeds are generated under upland field conditions; settings: upland soil treatment before emergence, about 21 days after treatment, score 0-5
Excerpt: as §2

[9] = system: Amaranthus viridis (green amaranthus); assay: as above; settings: upland soil treatment before emergence, about 21 days after treatment, score 0-5
Excerpt: as §2

[10] = system: Abutilon theophrasti (velvetleaf); assay: as above; settings: upland soil treatment before emergence, about 21 days after treatment, score 0-5
Excerpt: as §2

[11] = system: Chenopodium album (common lambsquarters); assay: as above; settings: upland soil treatment before emergence, about 21 days after treatment, score 0-5
Excerpt: as §2

[12] = system: Scirpus juncoides (bulrush); assay: Test Example-1: herbicidal effect by a treatment before weeds are generated under submerged conditions; settings: 500 g a.i/ha, pre-emergence treatment, about 15 days after treatment, score 0-5
How it was run: (§3)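 Paddy soil in cups was puddled, seeded with the weeds and kept flooded; compound as wettable powder or emulsifiable concentrate was diluted and applied into the water on the seeding day at a set dosage. Effect was scored about 15 days later on a 0–5 scale.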

[13] = system: Eleocharis acicularis (needle spikerush); assay: as above; settings: 500 g a.i/ha, pre-emergence treatment, about 15 days after treatment, score 0-5
How it was run: as §3

[14] = system: Cyperus difformis (smallflower umbrella plant); assay: as above; settings: 500 g a.i/ha, pre-emergence treatment, about 15 days after treatment, score 0-5
How it was run: as §3

[15] = system: Echinochloa oryzicola (barnyard grass); assay: as above; settings: 500 g a.i/ha, pre-emergence treatment, about 15 days after treatment, score 0-5
How it was run: as §3

[16] = system: other annual broad leaf weeds (Lindernia procumbens, Rotala indica, Elatine triandra); assay: as above; settings: 500 g a.i/ha, pre-emergence treatment, about 15 days after treatment, score 0-5
How it was run: as §3

[17] = system: Monochoria vaginalis (monochoria); assay: as above; settings: 500 g a.i/ha, pre-emergence treatment, about 15 days after treatment, score 0-5
How it was run: as §3

[18] = system: corn; assay: Test Example-4: phytotoxicity by a foliage treatment after weeds are generated under upland field conditions; settings: 500 g a.i/ha, foliage treatment after emergence, about 14 days after treatment, score 0-5
How it was run: (§4)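 Weed seeds were sown in upland soil, covered with about 0.5 cm soil and grown 14 days with watering. Diluted wettable powder or emulsifiable concentrate was then sprayed uniformly on foliage at a set dosage in 4000 L water/ha. Weed control and corn injury were scored 0–5 about 14 days later.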

[19] = system: corn; assay: Test Example-2: phytotoxicity by a soil treatment before weeds are generated under upland field conditions; settings: application amount 500 g a.i/ha, soil spray treatment before weeds are generated, about 21 days after the treatment, score 0 to 5
How it was run: as §1

[20] = system: corn; assay: Test Example-5: phytotoxicity by a foliage treatment after weeds are generated under upland field conditions; settings: foliage treatment after emergence, about 14 days after treatment, score 0-5
Excerpt: as §2, with “While watering was suitably performed on there, the seeds were grown for 14 days. A” for “Next day, a”, “foliage portion of the plant” for “covered oil”, “dosage in the amount of water of 4000 L per hectare.” for “dosage.”, “14” for “21”

[21] = system: Amaranthus viridis (green amaranthus); assay: Test Example-4: herbicidal effect by a foliage treatment after weeds are generated under upland field conditions; settings: 500 g a.i/ha, foliage treatment after emergence, about 14 days after treatment, score 0-5
How it was run: as §4

[22] = system: Abutilon theophrasti (velvetleaf); assay: as above; settings: 500 g a.i/ha, foliage treatment after emergence, about 14 days after treatment, score 0-5
How it was run: as §4

[23] = system: Chenopodium album (common lambsquarters); assay: as above; settings: 500 g a.i/ha, foliage treatment after emergence, about 14 days after treatment, score 0-5
How it was run: as §4

Row | Compound | Herbicidal effect Amaranthus viridis [1] | Herbicidal effect Chenopodium album [2] | Phytotoxicity Corn ([3]; 50 g a.i/ha) | Phytotoxicity Corn ([3]; 100 g a.i/ha) | Herbicidal effect Ipomoea purpurea ([4]; 12.5 g a.i/ha) | Herbicidal effect Ipomoea purpurea ([4]; 25 g a.i/ha) | Herbicidal effect Amaranthus viridis ([5]; 12.5 g a.i/ha) | Herbicidal effect Amaranthus viridis ([5]; 25 g a.i/ha) | Herbicidal effect Abutilon theophrasti ([6]; 12.5 g a.i/ha) | Herbicidal effect Abutilon theophrasti ([6]; 25 g a.i/ha) | Herbicidal effect Chenopodium album ([7]; 12.5 g a.i/ha) | Herbicidal effect Chenopodium album ([7]; 25 g a.i/ha) | Herbicidal effect Ipomoea purpurea ([8]; 50 g a.i/ha) | Herbicidal effect Ipomoea purpurea ([8]; 100 g a.i/ha) | Herbicidal effect Amaranthus viridis ([9]; 50 g a.i/ha) | Herbicidal effect Amaranthus viridis ([9]; 100 g a.i/ha) | Herbicidal effect Abutilon theophrast ([10]; 50 g a.i/ha) | Herbicidal effect Abutilon theophrast ([10]; 100 g a.i/ha) | Herbicidal effect Chenopodium album ([11]; 50 g a.i/ha) | Herbicidal effect Chenopodium album ([11]; 100 g a.i/ha) | further results
1 | C#CCOc1cc(-c2c(Cl)n3n(c2=O)CCOCC3)c(Cl)cc1Cl [Example 1-306] | 5 (Herbicidal effect/phytotoxicity was 90% or greater) | 5 (Herbicidal effect/phytotoxicity was 90% or greater) | 0 (Herbicidal effect/phytotoxicity was 0% to 10%) | 1 (Herbicidal effect/phytotoxicity was 10% to 30%) | 5 (Herbicidal effect/phytotoxicity was 90% or greater) | 5 (Herbicidal effect/phytotoxicity was 90% or greater) | 5 (Herbicidal effect/phytotoxicity was 90% or greater) | 5 (Herbicidal effect/phytotoxicity was 90% or greater) | 5 (Herbicidal effect/phytotoxicity was 90% or greater) | 5 (Herbicidal effect/phytotoxicity was 90% or greater) | 5 (Herbicidal effect/phytotoxicity was 90% or greater) | 5 (Herbicidal effect/phytotoxicity was 90% or greater) | 4 (Herbicidal effect/phytotoxicity was 70% to 90%) | 5 (Herbicidal effect/phytotoxicity was 90% or greater) | 5 (Herbicidal effect/phytotoxicity was 90% or greater) | 5 (Herbicidal effect/phytotoxicity was 90% or greater) | 3 (Herbicidal effect/phytotoxicity was 50% to 70%) | 4 (Herbicidal effect/phytotoxicity was 70% to 90%) | 5 (Herbicidal effect/phytotoxicity was 90% or greater) | 5 (Herbicidal effect/phytotoxicity was 90% or greater) | Herbicidal effect Scirpus juncoides [12]: 5 (Herbicidal effect/phytotoxicity was 90% or greater); Herbicidal effect Eleocharis acicularis [13]: 5 (Herbicidal effect/phytotoxicity was 90% or greater); Herbicidal effect Cyperus difformis [14]: 5 (Herbicidal effect/phytotoxicity was 90% or greater); Herbicidal effect Echinochloa oryzicola [15]: 5 (Herbicidal effect/phytotoxicity was 90% or greater); Herbicidal effect Broadleaf weed [16]: 5 (Herbicidal effect/phytotoxicity was 90% or greater); Herbicidal effect Monochoria vaginalis [17]: 5 (Herbicidal effect/phytotoxicity was 90% or greater); Phytotoxicity Corn [18]: 1 (Herbicidal effect/phytotoxicity was 10% to 30%); Phytotoxicity Corn [19]: 1 (Herbicidal effect/phytotoxicity was 10% to 30%); Phytotoxicity Corn ([20]; 12.5 g a.i/ha): 0 (Herbicidal effect/phytotoxicity was 0% to 10%); Phytotoxicity Corn ([20]; 25 g a.i/ha): 0 (Herbicidal effect/phytotoxicity was 0% to 10%); Herbicidal effect Amaranthus viridis [21]: 5 (Herbicidal effect/phytotoxicity was 90% or greater); Herbicidal effect Abutilon theophrast [22]: 5 (Herbicidal effect/phytotoxicity was 90% or greater); Herbicidal effect Chenopodium album [23]: 5 (Herbicidal effect/phytotoxicity was 90% or greater)
2 | C#CCOc1cc(-c2c(Cl)n3n(c2=O)CCCC3)c(F)cc1Cl [Example 1-238] | 5 (Herbicidal effect/phytotoxicity was 90% or greater) | 5 (Herbicidal effect/phytotoxicity was 90% or greater) | 0 (Herbicidal effect/phytotoxicity was 0% to 10%) | 0 (Herbicidal effect/phytotoxicity was 0% to 10%) | 5 (Herbicidal effect/phytotoxicity was 90% or greater) | 5 (Herbicidal effect/phytotoxicity was 90% or greater) | 5 (Herbicidal effect/phytotoxicity was 90% or greater) | 5 (Herbicidal effect/phytotoxicity was 90% or greater) | 5 (Herbicidal effect/phytotoxicity was 90% or greater) | 5 (Herbicidal effect/phytotoxicity was 90% or greater) | 5 (Herbicidal effect/phytotoxicity was 90% or greater) | 5 (Herbicidal effect/phytotoxicity was 90% or greater) | 5 (Herbicidal effect/phytotoxicity was 90% or greater) | 5 (Herbicidal effect/phytotoxicity was 90% or greater) | 4 (Herbicidal effect/phytotoxicity was 70% to 90%) | 5 (Herbicidal effect/phytotoxicity was 90% or greater) | 5 (Herbicidal effect/phytotoxicity was 90% or greater) | 5 (Herbicidal effect/phytotoxicity was 90% or greater) | 5 (Herbicidal effect/phytotoxicity was 90% or greater) | 5 (Herbicidal effect/phytotoxicity was 90% or greater) | Herbicidal effect Scirpus juncoides [12]: 5 (Herbicidal effect/phytotoxicity was 90% or greater); Herbicidal effect Eleocharis acicularis [13]: 5 (Herbicidal effect/phytotoxicity was 90% or greater); Herbicidal effect Cyperus difformis [14]: 5 (Herbicidal effect/phytotoxicity was 90% or greater); Herbicidal effect Echinochloa oryzicola [15]: 5 (Herbicidal effect/phytotoxicity was 90% or greater); Herbicidal effect Broadleaf weed [16]: 5 (Herbicidal effect/phytotoxicity was 90% or greater); Herbicidal effect Monochoria vaginalis [17]: 5 (Herbicidal effect/phytotoxicity was 90% or greater); Phytotoxicity Corn [18]: 3 (Herbicidal effect/phytotoxicity was 50% to 70%); Phytotoxicity Corn [19]: 1 (Herbicidal effect/phytotoxicity was 10% to 30%); Phytotoxicity Corn ([20]; 12.5 g a.i/ha): 0 (Herbicidal effect/phytotoxicity was 0% to 10%); Phytotoxicity Corn ([20]; 25 g a.i/ha): 0 (Herbicidal effect/phytotoxicity was 0% to 10%); Herbicidal effect Amaranthus viridis [21]: 5 (Herbicidal effect/phytotoxicity was 90% or greater); Herbicidal effect Abutilon theophrast [22]: 5 (Herbicidal effect/phytotoxicity was 90% or greater); Herbicidal effect Chenopodium album [23]: 5 (Herbicidal effect/phytotoxicity was 90% or greater)
